Assay results published in DBAASP.
Values after ≈ are worked out from the molar mass of the structure shown. Values joined by “and” are separate entries in the source; they are usually repeats but may differ in a detail not shown here. Equal values may be shown once.

Key:
Assay in all cases: ≥ marks a high value that may be exact or a test limit, other limits are often not marked, values filed in µg/mL are converted to µM
[1] = system: Escherichia coli ATCC 25922
[2] = system: Mycobacterium tuberculosis CAS3
[3] = system: Mycobacterium tuberculosis FYX
[4] = system: Mycobacterium tuberculosis H37Rv
[5] = system: Mycobacterium tuberculosis WXY
[6] = system: Mycobacterium tuberculosis
[7] = system: Bacillus anthracis Sterne 34F2
[8] = system: Bacillus subtilis var. niger ATCC 9372
[9] = system: Burkholderia thailandensis
Escherichia coli K91BK = system: Escherichia coli K91BK
[10] = system: Bacillus subtilis KCTC 3068
[11] = system: Escherichia coli KCTC 1682
[12] = system: Pseudomonas aeruginosa CCARM 2095
[13] = system: Pseudomonas aeruginosa CCARM 2109
[14] = system: Pseudomonas aeruginosa KCTC 1637
[15] = system: Salmonella typhimurium KCTC 1926
[16] = system: Staphylococcus aureus CCARM 3001
[17] = system: Staphylococcus aureus CCARM 3543
[18] = system: Staphylococcus aureus KCTC 1621
[19] = system: Staphylococcus epidermidis KCTC 1917
[20] = system: Enterococcus faecium ATCC 51559
[21] = system: Staphylococcus aureus CCARM 3090
[22] = system: Staphylococcus aureus CCARM 3095
Alternaria alternata = system: Alternaria alternata
Botrytis cinerea = system: Botrytis cinerea
Cladosporium herbarum = system: Cladosporium herbarum
[23] = system: Clavibacter michiganensis subsp. michiganensis DSM 46294
[24] = system: Pectobacterium carotovorum subsp. carotovorum DSM 30168
[25] = system: Pseudomonas corrugata DSM 7228
[26] = system: Pseudomonas syringae pv. syringae DSM 10604
[27] = system: Pseudomonas syringae pv. tomato DC3000
[28] = system: Staphylococcus aureus 90857
[29] = system: Xanthomonas vesicatoria DSM 50861
Bacillus megaterium = system: Bacillus megaterium
Escherichia coli ML-35 = system: Escherichia coli ML-35
[30] = system: Pseudomonas aeruginosa ATCC 27853
[31] = system: Salmonella enterica subsp. enterica serovar Typhimurium ATCC 14028
[32] = system: Staphylococcus aureus ATCC 25923

`CC(C)C[C@H](NC(=O)[C@H](CCCCN)NC(=O)[C@H](CCCCN)NC(=O)[C@H](CO)NC(=O)[C@H](Cc1ccccc1)NC(=O)[C@H](CCCCN)NC(=O)CNC(=O)[C@@H]1CCCN1C(=O)CNC(=O)[C@H](CCCCN)NC(=O)[C@H](CC(C)C)NC(=O)CNC(=O)[C@H](CCCCN)NC(=O)[C@H](CC(C)C)NC(=O)CNC(=O)[C@H](Cc1c[nH]c2ccccc12)NC(=O)[C@@H](N)Cc1ccccc1)C(=O)O` [FWGLKGLKGPGKFSKKL] gave an MIC [1] greater than 25 µM, an MIC [2] of no less than 39.7 µM and an MIC [3] of 19.8 µM (≈ 37.5 µg/mL). The MIC [4] was 11.6 µM and 19.8 µM, the MIC [5] was no less than 39.7 µM and the MIC [6] was 14.8 µM (≈ 28 µg/mL).
With `CC[C@H](C)[C@H](NC(=O)[C@H](CCCCN)NC(=O)[C@H](CCCN=C(N)N)NC(=O)CNC(=O)[C@H](CC(C)C)NC(=O)[C@H](CCCN=C(N)N)NC(=O)[C@H](CCCN=C(N)N)NC(=O)[C@H](CC(C)C)NC(=O)CNC(=O)[C@H](CCCN=C(N)N)NC(C)=O)C(=O)N[C@@H](C)C(=O)N[C@@H](Cc1cnc[nH]1)C(=O)NCC(=O)N[C@H](C(=O)N[C@@H](CCCCN)C(=O)N[C@@H](CCCCN)C(=O)N[C@@H](Cc1ccc(O)cc1)C(=O)NCC(=O)N1CCC[C@H]1C(=O)N[C@H](C(=O)N[C@H](C(=O)N[C@@H](CC(C)C)C(=O)N[C@@H](CCCN=C(N)N)C(=O)N[C@H](C(=O)N[C@H](C(=O)N[C@@H](CCCN=C(N)N)C(=O)N[C@H](C(=O)N[C@@H](C)C(=O)N[C@H](C(N)=O)[C@@H](C)O)[C@@H](C)O)[C@@H](C)CC)[C@@H](C)CC)C(C)C)[C@@H](C)O)C(C)C` [RGLRRLGRKIAHGVKKYGPTVLRIIRTAT] the MIC [7] was 2.51 µM (≈ 8.36 µg/mL), the MIC [8] was 3.13 µM (≈ 10.4 µg/mL) and the MIC [9] was no less than 100 µM. For the same compound, the MIC (Escherichia coli K91BK) was no less than 36.1 µM.
Work on `CC(C)C[C@H](NC(=O)[C@H](CC(C)C)NC(=O)[C@H](Cc1c[nH]c2ccccc12)NC(=O)[C@H](CCCCN)NC(=O)[C@H](CC(C)C)NC(=O)[C@H](Cc1c[nH]c2ccccc12)NC(=O)[C@H](CC(C)C)NC(=O)[C@H](CCCCN)NC(=O)[C@H](Cc1c[nH]c2ccccc12)NC(=O)[C@H](CC(C)C)NC(=O)[C@@H](N)CCCCN)C(N)=O` [KLWKLWLKWLL] yielded an MIC [10] of 8 µM (≈ 12.2 µg/mL), an MIC [11] of 8 µM (≈ 12.2 µg/mL) and an MIC [12] of 8 µM (≈ 12.2 µg/mL). It also gave an MIC [13] of 16 µM (≈ 24.4 µg/mL), an MIC [14] of 8 µM (≈ 12.2 µg/mL) and an MIC [15] of 4 µM (≈ 6.1 µg/mL). For the same compound, the MIC [16] was 4 µM (≈ 6.1 µg/mL), the MIC [17] was 4 µM (≈ 6.1 µg/mL) and the MIC [18] was 4 µM (≈ 6.1 µg/mL). For the same compound, the MIC [19] was 8 µM (≈ 12.2 µg/mL).
In the case of `CC[C@H](C)[C@H](NC(=O)[C@H](CC(C)C)NC(=O)[C@H](CCCCN)NC(=O)[C@@H](NC(=O)[C@@H](NC(=O)[C@H](CCCN=C(N)N)NC(=O)[C@@H](N)CCCCN)[C@@H](C)CC)C(C)C)C(=O)N[C@@H](CCCCN)C(=O)N[C@@H](CCCCN)C(=O)N[C@@H](Cc1c[nH]c2ccccc12)C(=O)N[C@@H](CC(C)C)C(=O)N[C@@H](CCCN=C(N)N)C(N)=O` [KRIVKLIKKWLR], the MIC [10] is reported as 8 µM and 4 µM, the MIC [20] is reported as no less than 64 µM and the MIC [12] is reported as 4 µM (≈ 6.32 µg/mL). For the same compound, the MIC [13] was no less than 64 µM, the MIC [14] was 4 µM and 8 µM and the MIC [21] was no less than 64 µM. The MIC [22] was no less than 64 µM.
With `CC(C)C[C@H](NC(=O)[C@H](CCCCN)NC(=O)[C@H](CC(C)C)NC(=O)[C@H](CCCN=C(N)N)NC(=O)[C@H](CCCCN)NC(=O)[C@H](CCCCN)NC(=O)[C@@H](N)CCCN=C(N)N)C(=O)N[C@@H](CC(C)C)C(=O)N[C@@H](CCCCN)C(=O)N[C@@H](CCCN=C(N)N)C(=O)N[C@@H](CC(C)C)C(=O)N[C@H](C(N)=O)C(C)C` [RKKRLKLLKRLV] the MIC (Alternaria alternata) was no less than 64.5 µM, the MIC (Botrytis cinerea) was no less than 64.5 µM and the MIC (Cladosporium herbarum) was 6.45 µM (≈ 9.99 µg/mL). It also gave an MIC [23] of 0.645 µM (≈ 0.999 µg/mL), an MIC [24] of 25.8 µM (≈ 40 µg/mL) and an MIC [25] of 1.29 µM (≈ 2 µg/mL). For the same compound, the MIC [26] was 1.29 µM (≈ 2 µg/mL), the MIC [27] was 0.645 µM (≈ 0.999 µg/mL) and the MIC [28] was 25 µM (≈ 38.8 µg/mL). It also gave an MIC [29] of 1.29 µM (≈ 2 µg/mL).
For `CC[C@H](C)[C@H](NC(=O)[C@H](CCCCN)NC(=O)[C@H](CCCCN)NC(=O)[C@H](CC(C)C)NC(=O)[C@H](C)NC(=O)[C@H](CCC(=O)O)NC(=O)[C@H](CCCCN)NC(=O)[C@@H](NC(=O)[C@H](CCCCN)NC(=O)[C@H](CC(N)=O)NC(=O)[C@H](CCCN=C(N)N)NC(=O)[C@H](Cc1ccccc1)NC(=O)[C@H](CCCCN)NC(=O)[C@H](CCCN=C(N)N)NC(=O)[C@H](CC(C)C)NC(=O)[C@H](C)NC(=O)[C@H](CCCCN)NC(=O)[C@H](CCCN=C(N)N)NC(=O)[C@H](CC(C)C)NC(=O)CN)[C@@H](C)CC)C(=O)O` [GLRKALRKFRNKIKEALKKI], the MIC (Bacillus megaterium) was 2 µM (≈ 4.82 µg/mL), the MIC [1] was 2 µM (≈ 4.82 µg/mL) and the MIC (Escherichia coli ML-35) was 0.5 µM (≈ 1.21 µg/mL). The MIC [30] was 2 µM (≈ 4.82 µg/mL), the MIC [31] was 0.5 µM (≈ 1.21 µg/mL) and the MIC [32] was 2 µM (≈ 4.82 µg/mL).
